Results reported in US20130344008A1, “NONCARIOUS MATERIAL AND ANTICARIOUS AGENT CONTAINING RARE SUGAR” (priority 2006, published 2013).

What was measured:
[1] = system: S. mutans strain MT 8148 (JCM5175); assay: Example 2: bacterial growth (OD 660 nm) and pH of S. mutans culture in phenol red broth with 1% test substance; assay type: cell-based, Streptococcus mutans; conditions: PRB broth, 37° C., 48 hours later; for OD: bacterial growth, absorbance at 660 nm
Procedure: D-Psicose and L-psicose were used to assay the actions thereof against S. mutans. D-Psicose and L-psicose were supplied from the Rare Sugar Research Center, the National University Corporation Kagawa University. The S. mutans strain MT 8148 (JCM5175) was plated in a Brain Heart Infusion broth supplemented with agar for culturing at 37° C. for 48 hours. The liquid culture was inoculated in a fresh Brain Heart Infusion broth, for culturing at 37° C. for 24 hours. The liquid culture was inoculated in a phenol red broth (PRB broth) containing a test substance at 1%, for culturing at 37° C.; the bacterial growth (absorbance at 660 nm: OD) and the pH were assayed 48 hours later. Asa control, glucose, fructose, sucrose and Xylitol were used. After culturing for a given period of time, additionally, the optical density of apart of the liquid culture was measured with an absorptiometer (OD 660 nm).

[2] = system: S. mutans strain JCM5075; assay: Example 1: optical density and pH of S. mutans JCM5075 cultures in BHI broth with rare sugars, with or without sucrose; assay type: cell-based, Streptococcus mutans; conditions: for pH 0 hour later / pH 6 hours later / pH 8 hours later / pH 12 hours later / pH 24 hours later / Optical density (OD) 12 hours later / suppression of OD increase compared with no addition: BHI broth; for Optical density (OD) 12 hours later: OD600; for suppression of the pH reduction: also with 1% sucrose addition; for suppression of OD increase compared with no addition: FIG. 2 / Table 1
Source text: S. mutans strains characteristically form insoluble glucan on addition of sucrose, to generate acids and reduce the pH of the culture medium, which is considered to cause decalcification of teeth on dental surface to form decayed teeth (the reason why the strains are designated bacteria causing decayed teeth). JCM 5075 of S. mutans strains and the Brain Heart Infusion (BHI) broth were used to assay the optical density (the increase of the number of the bacterial cells) and the pH change in individual rare sugar solutions with or without sucrose added. As the rare sugars, there were used D-fructose, L-fructose, D-sorbose, L-sorbose, D-psicose, L-psicose, D-tagatose and L-tagatose. The rare sugars used were supplied from the Rare Sugar Research Center, the National University Corporation Kagawa University.
The strain JCM5075 thawed from −80° C. stock was cultured for 48 hours, and was adjusted to OD 0.3. 100 μl of the resulting culture was added to each 2-ml portion of the BHI broths under individual conditions, to assay the optical density and the pH 24 hours later (observation with naked eyes and absorbance: OD600).
After collecting a part of the liquid culture and centrifuging the culture, the pH of the resulting supernatant was measured with a pH meter. The results are shown in Table 2 (0, 6, 8, 12 and 24 hours after the addition of the bacteria to the BHI broth) and FIG. 3.

[3] = 10% test substance + 1% sucrose

Compound | pH 0 hour later ([2]; 5% test substance + 1% sucrose) | pH 6 hours later ([2]; 5% test substance + 1% sucrose) | pH 8 hours later ([2]; 5% test substance + 1% sucrose) | pH 12 hours later ([2]; 5% test substance + 1% sucrose) | pH 24 hours later ([2]; 5% test substance + 1% sucrose) | pH 0 hour later ([2]; 5% test substance, no sucrose) | pH 6 hours later ([2]; 5% test substance, no sucrose) | pH 8 hours later ([2]; 5% test substance, no sucrose) | pH 12 hours later ([2]; 5% test substance, no sucrose) | pH 24 hours later ([2]; 5% test substance, no sucrose) | pH 0 hour later [2, 3] | pH 6 hours later [2, 3] | pH 8 hours later [2, 3] | pH 12 hours later [2, 3] | pH 24 hours later [2, 3] | Optical density (OD) 12 hours later ([2]; 10% test substance) | pH 0 hour later ([2]; 10% test substance, no sucrose) | pH 6 hours later ([2]; 10% test substance, no sucrose) | pH 8 hours later ([2]; 10% test substance, no sucrose) | pH 12 hours later ([2]; 10% test substance, no sucrose) | other results
O=C(CO)[C@@H](O)[C@@H](O)[C@@H](O)CO [L-psicose] | 7.3 | 7.2 | 7.2 | 7.2 | 6.2 | 7.3 | 7.2 | 7.2 | 7.2 | 6.8 | 7.2 | 7.1 | 7.0 | 7.0 | 6.9 | 0.067 | 7.2 | 7.1 | 7.0 | 7.0 | pH [1]: 5.9; OD [1]: 0.02; pH 24 hours later ([2]; 10% test substance, no sucrose): 6.9; suppression of the pH reduction ([2]; 24 hours later, FIG. 3): pH reduction was suppressed; suppression of OD increase compared with no addition [2]: suppression of OD increase was observed
O=C(CO)[C@@H](O)[C@@H](O)[C@H](O)CO [D-tagatose] | 7.3 | 7.2 | 7.2 | 7.2 | 6.9 | 7.3 | 7.2 | 7.2 | 7.2 | 7.0 | 7.1 | 7.0 | 7.0 | 7.0 | 6.9 | 0.132 | 7.1 | 7.0 | 7.0 | 7.0 | pH 24 hours later ([2]; 10% test substance, no sucrose): 6.9; suppression of the pH reduction ([2]; 24 hours later, FIG. 3): pH reduction was suppressed; suppression of OD increase compared with no addition [2]: suppression of OD increase was observed
O=C(CO)[C@@H](O)[C@H](O)[C@@H](O)CO [L-sorbose] | 7.4 | 7.2 | 7.2 | 7.2 | 5.3 | 7.4 | 7.2 | 7.2 | 7.2 | 5.9 | 7.3 | 7.2 | 7.2 | 7.2 | 6.4 | 0.463 | 7.3 | 7.2 | 7.2 | 7.2 | pH 24 hours later ([2]; 10% test substance, no sucrose): 7.1
O=C(CO)[C@@H](O)[C@H](O)[C@H](O)CO [D-fructose, reference compound] | 7.4 | 7.2 | 7.2 | 7.2 | 5.0 | 7.4 | 7.2 | 7.2 | 7.2 | 4.7 | 7.3 | 7.2 | 7.2 | 7.2 | 5.1 | 0.114 | 7.3 | 7.2 | 7.2 | 7.2 | pH change 24 hours later (in words) ([2]; 1% sucrose, or 10% Xylitol+1% sucrose, or 10% fructose+1% sucrose, FIG. 3): highly inclined to acidity; pH 24 hours later ([2]; 10% test substance, no sucrose): 6.5; precipitation of bacterial masses (insoluble glucan) under observation with naked eyes ([2]; addition of 1% sucrose, addition of 10% D-fructose, 24 hours later): caused the precipitation of bacterial masses (insoluble glucan)
O=C(CO)[C@H](O)[C@H](O)[C@@H](O)CO [L-tagatose] | 7.3 | 7.2 | 7.2 | 7.2 | 6.0 | 7.3 | 7.2 | 7.2 | 7.2 | 6.6 | 7.1 | 7.0 | 6.9 | 6.9 | 6.8 | 0.026 | 7.1 | 7.0 | 6.9 | 6.9 | pH 24 hours later ([2]; 10% test substance, no sucrose): 6.8; suppression of the pH reduction ([2]; 24 hours later, FIG. 3): pH reduction was suppressed; suppression of OD increase compared with no addition [2]: suppression of OD increase was observed
O=C[C@H](O)[C@@H](O)[C@H](O)[C@H](O)CO [D-Glucose, reference compound] |  |  |  |  |  |  |  |  |  |  |  |  |  |  |  |  |  |  |  |  | pH [1]: 3.9; OD [1]: 0.26
